Assay results reported in patent US20060167094A1, “Satiety agent” (priority 2005, published 2006).
Where “and” joins values, the source holds several entries; their conditions need not be identical. Equal entries are not always repeated.

Legend:
Format in all cases: in vivo, human
[1] = Antropyloroduodenal (APD) pressures by manometry during intraduodenal infusion
From the text: Subjects attended the laboratory at 0830 after fasting from 2200 the previous night from both solids and liquids. They were intubated with a 17-channel manometric catheter (Dentsleeve; Adelaide, South Australia, Australia) that was inserted through an anesthetized nostril and allowed to pass through the stomach and into the duodenum by peristalsis. The manometric catheter, which consisted of 16 sideholes spaced at 1.5-cm intervals, measures pressures in the antrum, pylorus, and duodenum. Six side holes (channels 1-6) were positioned in the antrum, a 4.5-cm sleeve sensor (channel 7), with two channels present on the back of the sleeve (channels 8 and 9), designed to measure pressure waves occurring over the entire pyloric region, were positioned across the pylorus, and seven channels were positioned in the duodenum (channels 10-16). An additional channel, used for intraduodenal infusions, was positioned 11.75 cm distal to the end of the sleeve sensor. The correct positioning of the catheter, so the sleeve sensor straddled the pylorus, was maintained by continuous measurement of the transmucosal potential difference (TMPD) between the most distal antral channel (channel 6; approximately −40 mV) and the most proximal duodenal channel (channel 10; ˜0 mV). For this purpose, an intravenous cannula filled with sterile saline was placed subcutaneously in the left forearm and used as a reference electrode. All manometric channels were perfused with degassed, distilled water except for the two TMPD channels, which were perfused with degassed 0.9% saline at 0.15 ml/min. An intravenous cannula was also placed into a right forearm vein for blood sampling to measure plasma CCK and GLP-1 concentrations.
(§1) Once the catheter was positioned correctly, fasting motility was monitored until the occurrence of phase III of the interdigestive migrating motor complex (MMC). Immediately after the cessation of phase III activity [at time t=−15 min], a baseline venous blood sample was taken, and a visual analog scale questionnaire (VAS) (see Measurements), assessing appetite-related sensations, was administered. At t=0 min (i.e., during phase I of the MMC), the duodenal infusion of 1) C12, 2) C10, or 3) control solution was commenced and continued for 90 min. APD pressures were monitored throughout the infusion period; blood samples were taken, and the VAS administered every 15 min from t=0 min until t=90 min. At t=90 min, the infusion was terminated, and the subject was immediately extubated and offered a cold buffet-style meal, the composition of which is provided in Table 1. The amount of food offered was in excess of what the subject was expected to consume. The subject was given 30 min (i.e., t=90 min to t=120 min) to consume the meal and instructed to eat until comfortably full. After ingestion of the meal, the subject was monitored for a further 30 min, a further VAS was completed, and blood samples were taken at t=120 and 150 min. The intravenous cannula was then removed, and the subject was allowed to leave the laboratory.
APD pressures. Manometric pressures were digitized, recorded on a computer-based system (PowerMac 7100/75, Apple Computers; Cupertino, Calif.) running commercially available software (HAD, Associate Prof. G S Hebbard, Melbourne, Australia) written in LabView 3.1.1 (National Instruments), and stored for subsequent analysis. APD pressures were analysed for 1) number and amplitude of isolated pyloric pressure waves (IPPWs) and pressure waves (PWs) in the antrum and duodenum and 2) number and length of PW sequences (PWSs) in the duodenum using custom-written software (Gastrointestinal Motility Unit; Utrecht, The Netherlands) modified to our requirements. […]

plasma CCK = experiment: Plasma CCK concentrations by radioimmunoassay
Description: as §1
Venous blood samples (10 ml) were collected in ice-chilled EDTA-treated tubes containing 400 kIU aprotinin (Trasylol, Bayer Australia) per millilitre of blood. Plasma was separated by centrifugation (3,200 rpm, 15 min, 4° C.) within 30 min of collection and stored at −70° C. until assayed.
Plasma CCK concentrations (in pmol/l) were determined after ethanol extraction using a previously described radioimmunoassay (3). A commercially available antibody (C258, Lot 105H4852, Sigma Chemical) raised in rabbits against the synthetic sulfated CCK-8 was employed. […] The intra-assay coefficient of variation (CV) was 9% and the interassay CV was 27%, with a sensitivity of 2.5 pmol/l. The sensitivity of the assay relates to its reliable detection limit.

[2] = Tolerability of intraduodenal fatty acid infusion (pilot study and randomized study)
Description: Fatty acid solutions were prepared using 5.3 g of commercially available food grade saturated free fatty acids, lauric (C12:0) and decanoic (C10:0) acid (Sigma-Aldrich; Milwaukee, Wis.). C12 was dissolved in 0.89 g NaOH (Sigma-Aldrich; St. Louis, Mo.) and distilled water to a total volume of 250 ml. C12 was maintained in solution by heating it to 37° C., with a resulting pH of 8.2. C10 was also dissolved in NaOH (1.21 g), and the pH of the C10 and control (distilled water) solutions was adjusted to 8.2 by the addition of NaOH. All solutions were prepared on the morning of the study and infused at 37° C. […] We chose to infuse the fatty acid and control solutions intraduodenally to ensure uniformity of doses across subjects and study days.
However, during the C12 infusion, the first subject tested reported severe nausea and only tolerated the infusion for 30 min. A second subject, who again reported severe nausea, tolerated the infusion for 60 min.

[3] = 90 min infusion, compared with control

CCCCCCCCCCCC(=O)O [C12, lauric acid]
basal pyloric pressure (tone) [1, 3]: increased basal pyloric pressure
number of antral PWs [1, 3]: decreased the number of antral PWs compared with control
number of duodenal PWs [1, 3]: decreased the number of duodenal PWs
number of IPPWs compared with control ([1]; C12: 0-15, 15-30 and 30-45 min, C10: 0-15 min): increased the number of IPPWs
length of antegrade peristalsis in the duodenum ([1]; C12 infusion): did not abolish but did shorten
onset of gastrointestinal effects ([1]; C12 infusion 0.375 kcal/min): ~15 min
amplitude of IPPWs compared with control ([1]; between 0-15 and 15-30 min): increased the amplitude of IPPWs compared with control
number of IPPWs compared with C10 ([1]; between 15-30 and 30-45 min): increased the number of IPPWs
amplitude of IPPWs compared with control ([1]; between 60 and 75 min): decreased the amplitude of IPPWs
amplitude of IPPWs compared with C10 ([1]; between 75 and 90 min): decreased the amplitude of IPPWs
number of duodenal PWSs travelling over three channels (3 to <4.5 cm) ([1]; compared with C10): decreased the number of waves that travelled over three channels compared with C10
amplitude of antral pressures ([1]; compared with both C10 and control infusions, trend P=0.080): tended to be lower
number of duodenal PWSs travelling over six channels (7.5 to <9 cm) ([1]; compared with control): decreased the number of waves that travelled over six channels compared with control
number of duodenal PWSs travelling over three channels (3 to <4.5 cm) ([1]; compared with control): no difference between C12 or C10 and control
number of duodenal PWSs travelling over two channels (1.5 to <3 cm) ([1]; compared with control): decreased the number of waves that travelled over two channels compared with control
number of waves that travelled over nine channels ([1]; compared with control): decreased the number of waves that travelled over nine channels
motor pattern on visual inspection of pressure traces ([1]; intraduodenal infusion 0.375 kcal/min): antral and duodenal PWs were inhibited and pyloric pressures stimulated
plasma CCK concentrations (plasma CCK; during 90 min infusion, compared with control): increased plasma CCK compared with control
time of rapid rise in plasma CCK (plasma CCK; from start of infusion, then plateaued): ≤ 15 min
magnitude of the rise in plasma CCK (plasma CCK; in the first 15 min of infusion, 0.375 kcal/min): ~12 pmol/L
plasma CCK level relative to postprandial level (plasma CCK; versus levels after the buffet meal following control infusion): comparable to postprandial levels after the control infusion
time the infusion was tolerated ([2]; pilot study, 0.75 kcal/min (n=1)): ~60 min
time the infusion was tolerated ([2]; pilot study, 1 kcal/min (n=1)): ~60 min
adverse effect limiting the infusion ([2]; pilot study, 1 kcal/min and 0.75 kcal/min): severe nausea and vomiting
adverse effect limiting the infusion ([2]; pilot study, 1.5 kcal/min): severe nausea
time the infusion was tolerated ([2]; pilot study, 1.5 kcal/min, individual subjects): 30 min and 60 min
time the infusion was tolerated ([2]; randomized study, 0.375 kcal/min, one subject with severe nausea): 30 min
